Reference: US11155616B2, “Drug regulated transgene expression” (Seattle Children's Hospital, priority 2014, dated 2021)

How the values were obtained:
TamR-tf (HEA3) [1] = test: ZsGreen expression by flow cytometry in Jurkat cells transduced with dual packaged TamR ZsGreen lentivirus (constructs A and B); type: cell-based, human; conditions: 500 nM 4OHT for 24 hours, flow cytometry (FIG. 1)
Excerpt: An alternative of the TamR-LV system allows for constitutive HEA3 expression and inducible expression of either ZsGreen or chimeric antigen receptors, permitting kinetic analysis and biological effect controlled in an “ON” and “OFF” manner by the presence or absence of tamoxifen. For this, two constructs were used: 1) HEA-3 is driven by the human EF1 a promoter and linked to the constructed truncated EGFR (EGFRt) transmembrane marker protein by a T2A skip-linker sequence and cloned into a third generation epHIV7 self-inactivating lentivirus packaging plasmid (construct A). (See FIGS. 9A, 9B and 9C; SEQ ID NO: 39; Table 1: SEQ ID NO: 8 and SEQ ID NO: 9) and 2) 7xHBD/[…] controls tamoxifen-dependent expression of ZsGreen cloned into pcDNA3.1(−) which was engineered to lack the commercially used CMV promoter (construct B) (See Table 12; SEQ ID NO: 41). ZsGreen1 is a human codon-optimized ZsGreen variant that encodes the brightest commercially available green fluorescent protein. (Available from Clontech).
Jurkat cells were transduced at a MOI of 5 with lentivirus packaging constructs described above in which a dual packaging approach in which each plasmid is co-transfected into 293T cells during lentiviral production. […]

TamR-tf (HEA3) [2] = test: On and off rate kinetics of ZsGreen expression in transduced Jurkat cells (4OHT washout and re-stimulation); type: cell-based, human
Excerpt: (§1) Jurkat cells were transduced at a MOI of 5 with lentivirus packaging constructs described above in which a dual packaging approach in which each plasmid is co-transfected into 293T cells during lentiviral production. This construct utilized molar ratio of 1:2 of construct A to construct B. Construct A encodes the chimeric transcription factor HEA3 linked via a ribosomal cleavage sequence, T2A, to the tracking and selection marker EGFRt. Construct B encodes the synthetic, HEA3-responsive promoter, 7xHBD/mE1b which regulates expression of the transgene ZsGreen-DR1, a short half-life green fluorescent reporter gene.
The population was subjected to 500 nM 4OHT stimulation for 48 hours, and then sorted for ZsGreen+cells utilizing FACS, yielding a >99% ZsGreen+population on immediate post-sort analysis. Cells were subsequently expanded in culture for 3 weeks, and then prepared for kinetic studies. Cells were divided into 3 treatment groups: (1) no 4OHT (2) 200 nM 4OHT (added every 48 hours) (3) 24 hour 200 nM 4OHT, followed by washout 1× in PBS, then culture in 4OHT free media for 14 days, followed by a 24 hour re-stimulation with 200 nm 4OHT, and then washout in 1×PBS. At each time point, samples were harvested and analyzed via flow cytometry for ZsGreen expression. Results are shown in FIG. 3 and are presented as % ZsGreen+.

TamR-tf (HEA3) [3] = test: 4OHT dose response of ZsGreen expression in transduced Jurkat cells; type: cell-based, human; conditions: 4OHT 0 nM-1000 nM, flow cytometry (FIG. 2)
Excerpt: as §1
Cells were harvested and were then subjected to treatment with 4OHT with concentrations ranging from 0 nM-1000 nM, as indicated. Samples were harvested, washed, and stained with EGFRt-biotin, followed by strepavidin-APC, and then analyzed by flow cytometry for ZsGreen expression.

TamR-tf (HEA3) [4] = test: Inducible CD19CAR/Her2t expression in Jurkat cells transduced with TamR-CD19CAR LV (flow cytometry and western blot); type: cell-based, human; conditions: construct not including DHFRdm, 500 nM 4OHT (FIG. 6)
Excerpt: Construction of the vector was accomplished by dual packaging of transfer plasmids housing constructs as described above at a plasmid molar ratio of 1:1. (See FIGS. 6C and 7C) Construct A under the constitutive EF-lalpha promoter encodes TamR-tf (HEA3) linked via a ribosomal cleavage sequence, T2A, to the tracking and selection marker EGFRt. (See FIGS. 9A, 9B and 9C; SEQ ID NO: 39, Table 1: SEQ ID NO: 8 and SEQ ID NO: 9) Construct B contains the 7xHBD/mE1b promoter with downstream transgene cDNA including CD19CAR linked via 2a cleavage sequence to Her2t, a tracking and selection marker. (See Table 12; SEQ ID NO: 41; Table 2 SEQ ID NO: 10; FIG. 11; SEQ ID NO: 44). Another construct was prepared adding an additional selective marker DHFRdm (See FIG. 12; SEQ ID NO: 46).
Human Jurkat cells were transduced at a MOI of 2, then were expanded in culture, and selected for EGFRt+ cells via magnetic bead selection. After further expansion, cells were either treated with vehicle alone (EtOH) or 500 nM 4OHT, and harvested for flow cytometry. Samples were stained with EGFRt-APC antibody and Herceptin-biotin, followed by SA PE. Samples were also prepared for western blot, the primary antibody used is an anti-CD247 mouse mAb which recognizes the intracellular CD3 zeta chain on the CD19CAR (˜48 kDa). The endogenous CD3 zeta migrates at ˜23 kDa.

TamR-tf (HEA3) [5] = test: Inducible Her2t expression in human CD4 central memory T cells transduced with TamR CD19CAR LV (with DHFRdm); type: cell-based; conditions: 500 nM 4OHT for 24 hours plus antiCD3/antiCD28 beads (FIG. 8)
Experimental: CD4 central memory cells were obtained from peripheral blood by selecting cells through flow cytometry for markers CD4, and CD62L and negative for CD45RO. Cells were cultured anti-CD3/anti-CD28 beads for 3 days. After 3 days, CD4 Central memory cells were transduced at a MOI of 5 with a lentivirus which packages constructs A and B. (FIG. 8B). Construct A encodes the chimeric transcription factor HEA3 linked via a ribosomal cleavage sequence, T2A, to the tracking and selection marker EGFRt. (See FIGS. 9A, 9B and 9C; SEQ ID NO: 39; Table 1; SEQ ID NO: 8 and SEQ ID NO: 9). […] (See Table 12; SEQ ID NO: 41; Table 2 SEQ ID NO: 10; FIG. 11; SEQ ID NO: 44; FIG. 12; SEQ ID NO: 46).
On day 21 after transduction, cells were enriched for EGFRt utilizing magnetic bead selection, and subsequently expanded with irradiated feeder cells, IL2, and IL15. Two weeks after expansion, cells were cryopreserved. In the experiment depicted above, CD4+ CEM cells which were mock transduced, or CD4+TamR CD19CAR LV were thawed, placed in culture with CD3/CD28 beads, IL-2, IL-15. CD4+TamRCD19CAR LV were treated or not with 500 nM 4OHT for 24 hours. All samples were harvested washed, then stained with an EGFRt-APC antibody and Her2t-biotin, followed by SA-PE, and analyzed via flow cytometry.

TamR-tf (HEA3) [6] = test: ZsGreen expression in primary CD4 central memory cells transduced with constructs A and B; type: cell-based, human; conditions: inducer plus antiCD3/anti-CD28 beads (FIG. 4B)
Experimental: CD4 central memory cells were obtained from peripheral blood by selecting cells through flow cytometry for markers CD4, and CD62L and negative for CD45RO. Cells were cultured with anti-CD3/anti-CD28 beads for 3 days.
as §1, with “After 3 days, CD4 or CD8 central memory” for “Jurkat”
(§2) On day 21 after transduction, cells were enriched for EGFRt, and subsequently expanded with feeder cells, IL2, and IL15. Following expansion, cells were divided into 3 treatment groups, 4OHT alone (A), 4OHT combined with CD3/CD28 bead cotreatment (B) or 4OHT alone for 48 hours, followed by addition of CD3/CD28 beads (C). […] All samples were harvested at indicated time points following 4OHT treatment, stained with EGFRt-biotin antibody, followed by SA-APC, and analyzed for flow cytometry. […]

TamR-tf (HEA3) [7] = test: Inducible CD19CAR/Her2t expression in Jurkat cells transduced with TamR CD19CAR LV containing DHFRdm (flow cytometry and western blot); type: cell-based, human; conditions: construct including DHFRdm, 500 nM 4OHT (FIG. 7)
Experimental: Construction of TamR CD19CAR LV was done through dual packaging of constructs A and B. Construct A contains HEA3 linked via a ribosomal cleavage sequence, T2A, to the tracking and selection marker EGFRt.
Cells were transduced with TamR CD19CAR LV at a MOI of 1, expanded in culture, selected for EGFRt via magnetic bead selection. Following further expansion cells were treated with […] alone (EtOH) or 500 nM 4OHT, and harvested for flow cytometry, (upper panel). FIG. 7. Samples were stained with EGFRt-APC antibody and Herceptin-biotin, followed by SA-PE. Parental (untransduced Jurkat) is shown for comparison. Samples were also prepared for western blot, the primary antibody used is an anti-CD247 mouse mAb which recognizes the intracellular CD3 zeta chain on the CD19CAR (˜48 kDa). The endogenous CD3 zeta migrates at ˜23 kDa.

TamR-tf (HEA3) [8] = test: ZsGreen expression in primary CD8 central memory cells transduced with constructs A and B; type: cell-based, human; conditions: inducer plus antiCD3/anti-CD28 beads (FIG. 5B)
Experimental: CD8 central memory cells were obtained from peripheral blood by selecting cells through flow cytometry for markers CD8, and CD62L and negative for CD45RO. Cells were cultured with anti-CD3/anti-CD28 beads for 3 days.
as §1, with “After 3 days, CD4 or CD8 central memory” for “Jurkat”
as §2

Row | Structure (SMILES) | cells expressing ZsGreen (TamR-tf (HEA3) [1]) | ZsGreen expression after 4-OHT washout, % of the max ZsGreen activity (TamR-tf (HEA3) [2]; 200 nM 4OHT then washout, within 5 days (FIG. 3)) | ZsGreen activity after 4-OHT is added back, % max activity (TamR-tf (HEA3) [2]; re-stimulation with 200 nM 4OHT, within 2 days (FIG. 3)) | concentration effective to induce expression of the transgene (ZsGreen) (TamR-tf (HEA3) [3]) [nM] | cells expressing both EGFRt and Her2t (TamR-tf (HEA3) [4]) | primary cells expressing both EGFRt and Her2t (TamR-tf (HEA3) [5]) | primary transduced CD4 cells expressing ZsGreen (TamR-tf (HEA3) [6]) | cells expressing both EGFRt and Her2t (TamR-tf (HEA3) [7]) | primary transduced CD8 cells expressing ZsGreen (TamR-tf (HEA3) [8])
1 | CC/C(=C(\c1ccc(O)cc1)c1ccc(OCCN(C)C)cc1)c1ccccc1 [4-OHT, 4-hydroxytamoxifen] | about 50% | less than 10% | about 100% | ≥ 200 |  |  |  |  | 
2 | CC/C(=C(\c1ccccc1)c1ccc(OCCN(C)C)cc1)c1ccccc1 [tamoxifen, 2-(4-((1Z)-1,2-diphenyl-1-butenyl)phenoxy)-N,N-dimethyl-ethanamine] |  |  |  |  | about 42.6% | about 14.7% | About 70% | about 7.5% | About 37%
